Assay results taken from patent US4528397A, “Aminocarboxylic acid derivatives” (Sanraku-Ocean Co., Ltd., priority 1982, dated 1985).

How the values were obtained:
[1] = molecular target: T1, dipeptidase (Rattus norvegicus, UniProt P31430); test: In vitro inhibition of partially purified rat kidney dipeptidase (spectrophotometric); type: biochemical; details: pH 8.0, 37° C., substrate of Table 1 (glycyldehydrophenylalanine or PS-5) not stated; for inhibition at 100 µM: inhibitor 10^-4 M
T1 construct: from tissue; host or cells: rat kidney, microsome fraction
Protocol: (1) Purification of dipeptidase
Rats were sacrificed by decapitation, and about 12 g of fresh kidneys were collected. A microsome fraction was obtained by the Hogboom's subcellular fractionating method used on differential centrifugation (Methods in Enzymology, Vol. 1, pages 16-19, Academic Press, New York, 1955). The microsome fraction was treated with 400 μg/ml of trypsin at 0° C. for 16 hours, and then supercentrifugally fractionated at 10^5 G for 60 minutes at 0° C.
The resulting precipitate was suspended in 20 ml of tris-HCl buffer (20 mM, pH 7.6) containing a detergent (0.4% Triton X-100), and then supercentrifugally fractionated at 10^5 G for 60 minutes at 0° C. The supernatant liquid was charged onto a column (15×100 mm) of Sephadex A-50 (Cl-form), and the column was eluted with tris-HCl buffer (20 mM, pH 7.0) containing a detergent (0.4% Triton X-100) with a sodium chloride concentration linear gradient from 0 to 0.5M.
The active fractions were concentrated with polyethylene glycol 4000, and then successively purified by a Sephadex G-150 (25×900 mm) column and a Sephadex G-200 (25×900 mm) column using the same tris-HCl buffer as above to obtain a partially purified sample of the dipeptidase.
(2) Measurement of inhibitory activity
Fifty microliters of the enzyme obtained as above was preincubated together with 30 μl of an inhibitor solution in a cuvette at 37° C. for 5 minutes. Then, 2.82 ml of a solution of glycyldehydrophenylalanine (5.3×10^-5 M) preincubated to 37° C. as a substrate in tris-HCl (0.1M, pH 8.0) was added, and the reaction was started. The reaction was carried out in a cuvette of a Hitachi spectrophotometer equipped with a constant temperature (37° C.) device, and by a recorder, a decrease in the absorbance of the reaction mixture at a wavelength of 275 nm during 5 minutes was measured.
The same experiment as above was carried out using a tris-HCl (pH 8.0) solution of antibiotic PS-5 (1.03 mM) as a substrate, and a decrease in the absorbance of the reaction mixture at a wavelength of 300 nm during 5 minutes was measured.
The percent inhibition and ID50 at a predetermined inhibitor concentration were determined from the measured values obtained as above and that obtained in a control in which no inhibitor was used.

[2] = Coadministration of AEG and antibiotic PS-5: urinary recovery of antibiotic PS-5; type: in vivo, mice (male, ddY); details: mouse, urine, sc, 2 mg, 0-3 hrs
Protocol: (§1) Coadministration of N-(2-aminoethyl)glycine and antibiiotic PS-5
To groups of 5 mice each (male, ddY, aged 5 weeks) was orally administered 0.25 ml (20 mg/mouse) of an aqueous solution of N-(2-aminoethyl)glycine (AEG) in a concentration of 80 mg/ml (the solutions had been adjusted to pH 7.5 with 1N HCl). The same volume of pure water was administered to a control group. Thirty minutes later, 0.25 ml of a solution of antibiotic PS-5 Na salt (8 mg/ml) in M/100 PBS (pH 7.0) was subcutaneously administered. Blood was taken from the retroorbital sinus at various time intervals using a heparinized capillary (a thermohematocrit capiratry tube, total length 75 mm, outside diameter 1.45-1.65 mm). One end of the tube was sealed with IATROSEAL® (Iatron Laboratries) and the plasma was separated by centrifugal separation (3000 rpm, 10 minutes). Blood sampling was carried out a total of six times at 0 time (immediately before administration of the antibiotic PS-5) and 5 minutes, 15 minutes, 30 minutes, 60 minutes and 90 minutes after the administration of the antibiotic PS-5. […]
On the other hand, the whole urine of the mice was taken 3 hours after the administration of the antibiotic PS-5, and the concentration of the antibiotic PS-5 in the collected whole urine was assayed by the same method as above. The mean concentrations for five mice was calculated.

[3] = Coadministration of AEG and antibiotic PS-5: plasma concentration of antibiotic PS-5; type: in vivo, mice (male, ddY); details: for concentration at 5 min / concentration at 0.25 h / concentration at 0.5 h: mouse, plasma, sc, 2 mg
Protocol: as §1
To groups of 5 mice each (male, ddY, aged 5 weeks) was orally administered 0.25 ml (20 mg/mouse) of an aqueous solution of N-(2-aminoethyl)glycine (AEG) in a concentration of 80 mg/ml (the solutions had been adjusted to pH 7.5 with 1N HCl). The same volume of pure water was administered to a control group. Thirty minutes later, 0.25 ml of a solution of antibiotic PS-5 Na salt (8 mg/ml) in M/100 PBS (pH 7.0) was subcutaneously administered. Blood was taken from the retroorbital sinus at various time intervals using a heparinized capillary (a thermohematocrit capiratry tube, total length 75 mm, outside diameter 1.45-1.65 mm). One end of the tube was sealed with IATROSEAL® (Iatron Laboratries) and the plasma was separated by centrifugal separation (3000 rpm, 10 minutes). Blood sampling was carried out a total of six times at 0 time (immediately before administration of the antibiotic PS-5) and 5 minutes, 15 minutes, 30 minutes, 60 minutes and 90 minutes after the administration of the antibiotic PS-5. The concentration of the antibiotic PS-5 in the plasma was disc-assayed against Comamonas terrigena B-996.

T1 sequence (P31430 17-410): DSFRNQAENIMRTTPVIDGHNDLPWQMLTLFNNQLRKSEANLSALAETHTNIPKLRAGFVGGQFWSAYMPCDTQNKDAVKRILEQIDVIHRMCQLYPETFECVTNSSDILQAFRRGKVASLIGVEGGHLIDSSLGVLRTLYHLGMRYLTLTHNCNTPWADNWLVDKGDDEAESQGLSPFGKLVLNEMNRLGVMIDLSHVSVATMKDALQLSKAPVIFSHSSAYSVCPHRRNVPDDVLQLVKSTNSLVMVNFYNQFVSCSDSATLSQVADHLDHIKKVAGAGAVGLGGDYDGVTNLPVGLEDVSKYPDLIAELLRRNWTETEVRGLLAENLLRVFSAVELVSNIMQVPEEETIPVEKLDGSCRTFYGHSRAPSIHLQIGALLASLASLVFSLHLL

SMILES: NCCNCC(=O)O [Compound 1, N-(2-aminoethyl)glycine]
- inhibition at 100 µM [1]: 86%

SMILES: NCCSCC(=O)O [Compound 2, (2-aminoethyl)thioacetic acid]
- inhibition at 100 µM [1]: 2%

SMILES: C[C@H](NCCN)C(=O)O [Compound 3, N-(2-aminoethyl)-L-alanine]
- inhibition at 100 µM [1]: 15.6%

SMILES: NCCN[C@@H](Cc1ccccc1)C(=O)O [Compound 4, N-(2-aminoethyl)-L-phenylalanine]
- inhibition at 100 µM [1]: 38%

SMILES: N[C@H](CNCC(=O)O)Cc1ccccc1 [Compound 5, (S)-[N-(2-amino-2-benzyl)ethyl]glycine]
- inhibition at 100 µM [1]: 85%
- IC50 ([1]; read-out: ID50 (the source's name)): 22 µM

SMILES: C[C@H](N)CNCC(=O)O [Compound 6, (S)-N-(2-aminopropyl)glycine]
- inhibition at 100 µM [1]: 42.4%

SMILES: CC[C@H]1C(=O)N2C(C(=O)O)=C(SCCNC(C)=O)C[C@H]12 [antibiotic PS-5]
- dose excreted at 3 h ([2]; AEG administered group (AEG 20 mg/mouse oral, PS-5 s.c.)): 13.2%
- dose excreted at 3 h ([2]; Control group (water, PS-5 s.c.)): 0%
- Concentration of antibiotic PS-5 in the plasma ([3]; AEG administered group (AEG 20 mg/mouse oral, 30 min before PS-5 s.c.), 0 min (immediately before PS-5)): 0 ng/mL
- Concentration of antibiotic PS-5 in the plasma ([3]; AEG administered group, 60 min after PS-5 s.c.): 0 ng/mL
- Concentration of antibiotic PS-5 in the plasma ([3]; AEG administered group, 90 min after PS-5 s.c.): 0 ng/mL
- Concentration of antibiotic PS-5 in the plasma ([3]; Control group (water instead of AEG, then PS-5 s.c.), 0 min (immediately before PS-5)): 0 ng/mL
- Concentration of antibiotic PS-5 in the plasma ([3]; Control group (water, PS-5 s.c.), 60 min): 0 ng/mL
- Concentration of antibiotic PS-5 in the plasma ([3]; Control group (water, PS-5 s.c.), 90 min): 0 ng/mL
- concentration at 5 min ([3]; AEG administered group, 5 min after PS-5 s.c.): 49600 ± 3700 ng/mL
- concentration at 0.25 h ([3]; AEG administered group, 15 min after PS-5 s.c.): 21700 ± 2600 ng/mL
- concentration at 0.5 h ([3]; AEG administered group, 30 min after PS-5 s.c.): 2300 ± 500 ng/mL
- concentration at 5 min ([3]; Control group (water, PS-5 s.c.), 5 min): 52000 ± 4600 ng/mL
- concentration at 0.25 h ([3]; Control group (water, PS-5 s.c.), 15 min): 15200 ± 1900 ng/mL
- concentration at 0.5 h ([3]; Control group (water, PS-5 s.c.), 30 min): 1000 ± 100 ng/mL
